Structures can show the parent of a compound that is named as a salt.
Assays:
Format in all cases: in vivo
[1] = test system: Chenopodium album var. centrorubrum; assay: Herbicidal activity, foliar application of single compounds (Test Examples 1 to 5); design: key: 0 means the state where the plants are as sound as before the application of the active compound; 1, 2, 3 and 4 mean varying degrees of the enfeebled state of the plants between 0 and 5; 1, 2, 3 and 4 mean varying degrees of the enfeebled state of the plants between 0 and 5; 1, 2, 3 and 4 mean varying degrees of the enfeebled state of the plants between 0 and 5; 1, 2, 3 and 4 mean varying degrees of the enfeebled state of the plants between 0 and 5; 5 is the state where the plants are withered or killed by application of the active compound; conditions: 3 weeks after application
Procedure: (§1) In these examples, all parts means parts by weight, unless otherwise noted. The herbicidal activity was evaluated on a scale of 6 degrees. In other words, 0 means the state where the plants are as sound as before the application of the active compound, while 5 is the state where the plants are withered or killed by application of the active compound, and 1, 2, 3 and 4 mean varying degrees of the enfeebled state of the plants between 0 and 5.
(§2) The diphenyl ethers shown in Table 2 were added to 5000 parts of a mixture of acetone and water (1 : 1 by volume), and 2.6 parts of a nonionic surfactant (Sorpol 2680, tradename) was added to form a solution, so that the ether becomes the prescribed amount in each solution.
(§3) Seeds of plants were sown in the soil, cultivated for 2 to 3 weeks, after germination, then the plants were used for the tests.
(§4) The prepared solution was applied to these plants at the prescribed rate of application in total, then the plants were continuously cultivated for 3 weeks without applying the solution.
(§5) The alphabetical symbols in Tables 2 and 3 represent the following plants, respectively: a: Digitaria adscendens b: Setaria viridis c: Sorghum halepense d: Chenopodium album var. centrorubrum e: Amaranthus mangostanus f: Astragalus sinicus g: Abutilon theophrosti h: Solanum nigrum i: Xanthium strumarium j: Soybean; Glycine max k: Corn; Zea mays Table 2

Corn; Zea mays = assay: as above; design: key: 0 means the state where the plants are as sound as before the application of the active compound; 1, 2, 3 and 4 mean varying degrees of the enfeebled state of the plants between 0 and 5; 1, 2, 3 and 4 mean varying degrees of the enfeebled state of the plants between 0 and 5; 1, 2, 3 and 4 mean varying degrees of the enfeebled state of the plants between 0 and 5; 1, 2, 3 and 4 mean varying degrees of the enfeebled state of the plants between 0 and 5; 5 is the state where the plants are withered or killed by application of the active compound; conditions: 3 weeks after application
Procedure: as §1, §2, §3, §4, §5

Digitaria adscendens = assay: as above; design: key: 0 means the state where the plants are as sound as before the application of the active compound; 1, 2, 3 and 4 mean varying degrees of the enfeebled state of the plants between 0 and 5; 1, 2, 3 and 4 mean varying degrees of the enfeebled state of the plants between 0 and 5; 1, 2, 3 and 4 mean varying degrees of the enfeebled state of the plants between 0 and 5; 1, 2, 3 and 4 mean varying degrees of the enfeebled state of the plants between 0 and 5; 5 is the state where the plants are withered or killed by application of the active compound; conditions: 3 weeks after application
Procedure: as §1, §2, §3, §4, §5

Setaria viridis = assay: as above; design: key: 0 means the state where the plants are as sound as before the application of the active compound; 1, 2, 3 and 4 mean varying degrees of the enfeebled state of the plants between 0 and 5; 1, 2, 3 and 4 mean varying degrees of the enfeebled state of the plants between 0 and 5; 1, 2, 3 and 4 mean varying degrees of the enfeebled state of the plants between 0 and 5; 1, 2, 3 and 4 mean varying degrees of the enfeebled state of the plants between 0 and 5; 5 is the state where the plants are withered or killed by application of the active compound; conditions: 3 weeks after application
Procedure: as §1, §2, §3, §4, §5

Sorghum halepense = assay: as above; design: key: 0 means the state where the plants are as sound as before the application of the active compound; 1, 2, 3 and 4 mean varying degrees of the enfeebled state of the plants between 0 and 5; 1, 2, 3 and 4 mean varying degrees of the enfeebled state of the plants between 0 and 5; 1, 2, 3 and 4 mean varying degrees of the enfeebled state of the plants between 0 and 5; 1, 2, 3 and 4 mean varying degrees of the enfeebled state of the plants between 0 and 5; 5 is the state where the plants are withered or killed by application of the active compound; conditions: 3 weeks after application
Procedure: as §1, §2, §3, §4, §5

Soybean; Glycine max = assay: as above; design: key: 0 means the state where the plants are as sound as before the application of the active compound; 1, 2, 3 and 4 mean varying degrees of the enfeebled state of the plants between 0 and 5; 1, 2, 3 and 4 mean varying degrees of the enfeebled state of the plants between 0 and 5; 1, 2, 3 and 4 mean varying degrees of the enfeebled state of the plants between 0 and 5; 1, 2, 3 and 4 mean varying degrees of the enfeebled state of the plants between 0 and 5; 5 is the state where the plants are withered or killed by application of the active compound; conditions: 3 weeks after application
Procedure: as §1, §2, §3, §4, §5

Xanthium strumarium = assay: as above; design: key: 0 means the state where the plants are as sound as before the application of the active compound; 1, 2, 3 and 4 mean varying degrees of the enfeebled state of the plants between 0 and 5; 1, 2, 3 and 4 mean varying degrees of the enfeebled state of the plants between 0 and 5; 1, 2, 3 and 4 mean varying degrees of the enfeebled state of the plants between 0 and 5; 1, 2, 3 and 4 mean varying degrees of the enfeebled state of the plants between 0 and 5; 5 is the state where the plants are withered or killed by application of the active compound; conditions: 3 weeks after application
Procedure: as §1, §2, §3, §4, §5

[2] = test system: Broad-leaved Plants (d, e, f, g, h, i, j); assay: Average withering rate, single and mixed solutions (Test Example 11); design: unit: %; conditions: 3 weeks
Text: as §5
(§6) In each run, the compound (1) according to the invention only or the N-phosphonomethylglycine derivatives (117) only or the mixture thereof were used as in the Test Example 1 to prepare single solutions and mixed solutions by using various amounts of each components. Each of the preparations were applied to the plants as in Test Example 1 and the cultivation was continued for 3 weeks without additive application thereafter.
(§7) The results were analyzed by Tammes's method [Tammes, P.M.L.: Neth. J. Plant Path., 70, 73-80 (1964)] which was cited in "Zasso Kenkyuu" (in Japanese) (Weed Studies) 14, 12-18 […] and shown in Fig. 1 and Fig. 2.
(§8) Fig. 1 represents the average withering rate of 4 kinds of narrow-leaved plants (a, b, c, and k), while Fig. 2 gives withering rate of 7 kinds of broad-leaved plants (d, e, f, g, h, i j). As these figures show clearly, the curve binding the points of 95 % effect is inside the one of the synergistic effect, thus it can be concluded that the mixed preparation has synergistic effect.

[3] = test system: Narrow-leaved Plants (a, b, c, k); assay: as above; design: unit: %; conditions: 3 weeks
Text: as §5, §6, §7, §8

[4] = Rate of Application 0.016 kg/ha
[5] = Rate of Application 0.031 kg/ha
[6] = Compound (1) 0.008 kg a.i./ha, Compound (117) 0 kg a.i./ha
[7] = Compound (1) 0.016 kg a.i./ha, Compound (117) 0 kg a.i./ha
[8] = Compound (1) 0.031 kg a.i./ha, Compound (117) 0 kg a.i./ha
[9] = Compound (1) 0 kg a.i./ha, Compound (117) 0.094 kg a.i./ha
[10] = Compound (1) 0 kg a.i./ha, Compound (117) 0.188 kg a.i./ha
[11] = Compound (1) 0 kg a.i./ha, Compound (117) 0.375 kg a.i./ha
[12] = Compound (1) 0 kg a.i./ha, Compound (117) 0.750 kg a.i./ha

COC(=O)C(C)Oc1cc(Oc2ccc(C(F)(F)F)cc2Cl)ccc1C#N (stereo not drawn) [Compound (1), Methyl α-[2-cyano-5-(2-chloro-4-trifluoromethylphenoxy)phenoxy]propionate] was tested, and the “herbicidal activity, Plants d” value [1, 4] was 5, the “herbicidal activity, Plants d” value [1, 5] was 5 and the “herbicidal activity, Plants k” value (Corn; Zea mays; [4]) was 5. The “herbicidal activity, Plants k” value (Corn; Zea mays; [5]) was 5, the “herbicidal activity, Plants a” value (Digitaria adscendens; [4]) was 4 and the “herbicidal activity, Plants a” value (Digitaria adscendens; [5]) was 4. The “herbicidal activity, Plants b” value (Setaria viridis; [4]) was 3, the “herbicidal activity, Plants b” value (Setaria viridis; [5]) was 4 and the “herbicidal activity, Plants c” value (Sorghum halepense; [4]) was 5. The “herbicidal activity, Plants c” value (Sorghum halepense; [5]) was 5, the “herbicidal activity, Plants j” value (Soybean; Glycine max; [4]) was 4 and the “herbicidal activity, Plants j” value (Soybean; Glycine max; [5]) was 4. For the same compound, the “herbicidal activity, Plants i” value (Xanthium strumarium; [4]) was 5, the “herbicidal activity, Plants i” value (Xanthium strumarium; [5]) was 5 and the “Average Withering Rates of Broad-leaved Plants (d, e, f, g, h, i, j)” value (from here on “Average Withering Rates … (d, e, f, g, h, i, j)”) [2, 6] was 80. For the same compound, the “Average Withering Rates … (d, e, f, g, h, i, j)” value [2, 7] was 80, the “Average Withering Rates … (d, e, f, g, h, i, j)” value [2, 8] was 96 and the “Average Withering Rates of Narrow-leaved Plants (a, b, c, k)” value (from here on “Average Withering Rates … (a, b, c, k)”) [3, 6] was 33. For the same compound, the “Average Withering Rates … (a, b, c, k)” value [3, 7] was 47, the “Average Withering Rates … (a, b, c, k)” value [3, 8] was 80 and the “Average Withering Rates … (a, b, c, k)” value ([3]; Compound (1) 0.063 kg a.i./ha, Compound (117) 0 kg a.i./ha) was 93.

With O=C(O)CNCP(=O)(O)O [Compound (117), N-phosphonomethylglycine isopropylammonium salt] the “Average Withering Rates … (d, e, f, g, h, i, j)” value [2, 9] was 4, the “Average Withering Rates … (d, e, f, g, h, i, j)” value [2, 10] was 36 and the “Average Withering Rates … (d, e, f, g, h, i, j)” value [2, 11] was 55. For the same compound, the “Average Withering Rates … (d, e, f, g, h, i, j)” value [2, 12] was 80, the “Average Withering Rates … (a, b, c, k)” value [3, 9] was 50 and the “Average Withering Rates … (a, b, c, k)” value [3, 10] was 87. The “Average Withering Rates … (a, b, c, k)” value [3, 11] was 87 and the “Average Withering Rates … (a, b, c, k)” value [3, 12] was 95.

— patent EP0533925A1, “OPTICAL ISOMER OF R-FORM OF DIPHENYL ETHER DERIVATIVE AND HERBICIDE CONTAINING THE SAME AS ACTIVE INGREDIENT” (TEIJIN LIMITED, priority 1990, dated 1991)
